Assay results as given in patent publication US5492839A (priority 1994, dated 1996).
Like-named read-outs stand apart in the source and are kept apart here.

Legend:
[1] = target: T1, skeletal muscle ryanodine receptor (Oryctolagus cuniculus, UniProt P11716); assay: [3H]Ryanodine competition binding to rabbit skeletal muscle triads
T1 construct: Rabbit skeletal muscle triads were prepared as previously described; from tissue; host or cells: rabbit skeletal muscle triads
Procedure: Rabbit skeletal muscle triads were prepared as previously described (Sharp et al., J. Biol. Chem. 262: 12309-12315 (1987)). […]

[2] = system: anti-ryanodine antibodies; assay: Competitive radioimmunoassay: inhibition of [3H]ryanodine-antibody binding (dextran-coated charcoal assay); set-up: species or system rabbit; details: for binds times less tightly than ryanodine (antibody): relative to ryanodine
Procedure: Binding was performed in triplicate in 1.5 ml polypropylene tubes. […] Following the addition of serial dilutions of antibody, the tubes were shaken and incubated for 1 h at room temperature. The tubes were placed on ice for 10 min and then 0.2 ml of stirred, ice-cold dextran-coated charcoal (0.0625% Dextran T-70, 0.625% Norit A charcoal in TSG) was added to each tube. The tubes were shaken and incubated for an additional 10 min on ice. […] Controls without antiserum were included to determine the amount of radiolabel that could not be precipitated by the charcoal.
Ryanodine derivatives were prepared by serial dilution in TSG.

[3] = target: T2, brain ryanodine receptor (brain membranes) (Oryctolagus cuniculus, UniProt P30957); assay: [3H]Ryanodine competition binding to brain membranes; set-up: species or system rabbit
T2 construct: Crude rabbit brain membranes were purified as previously described; from tissue; host or cells: crude rabbit brain membranes (microsomes)
Text: (§1) Canine cardiac junctional SR vesicles were isolated as described previously (Witcher et al., J. Biol. Chem. 266, 1114-11152 (1991)). Crude rabbit brain membranes were purified as previously described (Witcher et al., J. Biol. Chem. 267, 4963-4967 (1992)).

[4] = target: T3, cardiac ryanodine receptor (cardiac membranes) (Canis lupus familiaris, UniProt A0A8I3MT21); assay: [3H]Ryanodine competition binding to cardiac membranes; set-up: species or system canine
T3 construct: Canine cardiac junctional SR vesicles were isolated as described previously; from tissue; host or cells: canine cardiac junctional SR vesicles / cardiac microsomes
Text: as §1

[5] = target: T1, skeletal muscle ryanodine receptor; assay: Photoaffinity labeling of skeletal muscle triads with [3H]ABRy; type: binding, rabbit
Procedure: Since [^3 H]ABRy contains a photoactivatable azido group, this compound was used to covalently label skeletal muscle triads following equilibrium binding. […] The membranes were then pelleted at 400,000×g for 15 min and resuspended in 1 ml of the binding buffer with 5 mM glutathione. The samples were placed in a plastic petri dish at 4° C. and were exposed to UV light (365 nm) at a distance of 1 cm for 45 min. The membranes were then centrifuged in a microfuge at maximum speed for 15 min. at 4° C. The pellets were resuspended in Laemmli sample buffer.
The proteins were then analyzed by SDS-PAGE (3-12% gradient gels) using the buffer system of Laemmli (Nature 227, 680-685 (1970)). Gels were stained with Coomassie blue or transferred to nitrocellulose for immunoblot analysis as previously described (Witcher et al., Science 261, 486-489 (1993)). […] Gels used for fluorography were first stained with Coomassie blue, destained, soaked in Enlightning (DuPont), and dried under vacuum. The dried gels were then exposed to Kodak XAR-5 film at -80° C. The fluorograms were also analyzed densitometrically using a Molecular Dynamics Model 300A scanning densitometer.

[6] = IC50 for binding to the ryanodine receptor, rabbit skeletal membranes, from FIG. 5, unit inferred
[7] = 1 nM [3H]ryanodine, 1:8,000 dilution of anti-ryanodine antibody, read-out: Inhibition of [^3 H] ryanodine-antibody binding, IC50
[8] = from FIG. 5, unit inferred, read-out: IC50 for binding to anti-ryanodine antibodies

T1 sequence (P11716 whole entry): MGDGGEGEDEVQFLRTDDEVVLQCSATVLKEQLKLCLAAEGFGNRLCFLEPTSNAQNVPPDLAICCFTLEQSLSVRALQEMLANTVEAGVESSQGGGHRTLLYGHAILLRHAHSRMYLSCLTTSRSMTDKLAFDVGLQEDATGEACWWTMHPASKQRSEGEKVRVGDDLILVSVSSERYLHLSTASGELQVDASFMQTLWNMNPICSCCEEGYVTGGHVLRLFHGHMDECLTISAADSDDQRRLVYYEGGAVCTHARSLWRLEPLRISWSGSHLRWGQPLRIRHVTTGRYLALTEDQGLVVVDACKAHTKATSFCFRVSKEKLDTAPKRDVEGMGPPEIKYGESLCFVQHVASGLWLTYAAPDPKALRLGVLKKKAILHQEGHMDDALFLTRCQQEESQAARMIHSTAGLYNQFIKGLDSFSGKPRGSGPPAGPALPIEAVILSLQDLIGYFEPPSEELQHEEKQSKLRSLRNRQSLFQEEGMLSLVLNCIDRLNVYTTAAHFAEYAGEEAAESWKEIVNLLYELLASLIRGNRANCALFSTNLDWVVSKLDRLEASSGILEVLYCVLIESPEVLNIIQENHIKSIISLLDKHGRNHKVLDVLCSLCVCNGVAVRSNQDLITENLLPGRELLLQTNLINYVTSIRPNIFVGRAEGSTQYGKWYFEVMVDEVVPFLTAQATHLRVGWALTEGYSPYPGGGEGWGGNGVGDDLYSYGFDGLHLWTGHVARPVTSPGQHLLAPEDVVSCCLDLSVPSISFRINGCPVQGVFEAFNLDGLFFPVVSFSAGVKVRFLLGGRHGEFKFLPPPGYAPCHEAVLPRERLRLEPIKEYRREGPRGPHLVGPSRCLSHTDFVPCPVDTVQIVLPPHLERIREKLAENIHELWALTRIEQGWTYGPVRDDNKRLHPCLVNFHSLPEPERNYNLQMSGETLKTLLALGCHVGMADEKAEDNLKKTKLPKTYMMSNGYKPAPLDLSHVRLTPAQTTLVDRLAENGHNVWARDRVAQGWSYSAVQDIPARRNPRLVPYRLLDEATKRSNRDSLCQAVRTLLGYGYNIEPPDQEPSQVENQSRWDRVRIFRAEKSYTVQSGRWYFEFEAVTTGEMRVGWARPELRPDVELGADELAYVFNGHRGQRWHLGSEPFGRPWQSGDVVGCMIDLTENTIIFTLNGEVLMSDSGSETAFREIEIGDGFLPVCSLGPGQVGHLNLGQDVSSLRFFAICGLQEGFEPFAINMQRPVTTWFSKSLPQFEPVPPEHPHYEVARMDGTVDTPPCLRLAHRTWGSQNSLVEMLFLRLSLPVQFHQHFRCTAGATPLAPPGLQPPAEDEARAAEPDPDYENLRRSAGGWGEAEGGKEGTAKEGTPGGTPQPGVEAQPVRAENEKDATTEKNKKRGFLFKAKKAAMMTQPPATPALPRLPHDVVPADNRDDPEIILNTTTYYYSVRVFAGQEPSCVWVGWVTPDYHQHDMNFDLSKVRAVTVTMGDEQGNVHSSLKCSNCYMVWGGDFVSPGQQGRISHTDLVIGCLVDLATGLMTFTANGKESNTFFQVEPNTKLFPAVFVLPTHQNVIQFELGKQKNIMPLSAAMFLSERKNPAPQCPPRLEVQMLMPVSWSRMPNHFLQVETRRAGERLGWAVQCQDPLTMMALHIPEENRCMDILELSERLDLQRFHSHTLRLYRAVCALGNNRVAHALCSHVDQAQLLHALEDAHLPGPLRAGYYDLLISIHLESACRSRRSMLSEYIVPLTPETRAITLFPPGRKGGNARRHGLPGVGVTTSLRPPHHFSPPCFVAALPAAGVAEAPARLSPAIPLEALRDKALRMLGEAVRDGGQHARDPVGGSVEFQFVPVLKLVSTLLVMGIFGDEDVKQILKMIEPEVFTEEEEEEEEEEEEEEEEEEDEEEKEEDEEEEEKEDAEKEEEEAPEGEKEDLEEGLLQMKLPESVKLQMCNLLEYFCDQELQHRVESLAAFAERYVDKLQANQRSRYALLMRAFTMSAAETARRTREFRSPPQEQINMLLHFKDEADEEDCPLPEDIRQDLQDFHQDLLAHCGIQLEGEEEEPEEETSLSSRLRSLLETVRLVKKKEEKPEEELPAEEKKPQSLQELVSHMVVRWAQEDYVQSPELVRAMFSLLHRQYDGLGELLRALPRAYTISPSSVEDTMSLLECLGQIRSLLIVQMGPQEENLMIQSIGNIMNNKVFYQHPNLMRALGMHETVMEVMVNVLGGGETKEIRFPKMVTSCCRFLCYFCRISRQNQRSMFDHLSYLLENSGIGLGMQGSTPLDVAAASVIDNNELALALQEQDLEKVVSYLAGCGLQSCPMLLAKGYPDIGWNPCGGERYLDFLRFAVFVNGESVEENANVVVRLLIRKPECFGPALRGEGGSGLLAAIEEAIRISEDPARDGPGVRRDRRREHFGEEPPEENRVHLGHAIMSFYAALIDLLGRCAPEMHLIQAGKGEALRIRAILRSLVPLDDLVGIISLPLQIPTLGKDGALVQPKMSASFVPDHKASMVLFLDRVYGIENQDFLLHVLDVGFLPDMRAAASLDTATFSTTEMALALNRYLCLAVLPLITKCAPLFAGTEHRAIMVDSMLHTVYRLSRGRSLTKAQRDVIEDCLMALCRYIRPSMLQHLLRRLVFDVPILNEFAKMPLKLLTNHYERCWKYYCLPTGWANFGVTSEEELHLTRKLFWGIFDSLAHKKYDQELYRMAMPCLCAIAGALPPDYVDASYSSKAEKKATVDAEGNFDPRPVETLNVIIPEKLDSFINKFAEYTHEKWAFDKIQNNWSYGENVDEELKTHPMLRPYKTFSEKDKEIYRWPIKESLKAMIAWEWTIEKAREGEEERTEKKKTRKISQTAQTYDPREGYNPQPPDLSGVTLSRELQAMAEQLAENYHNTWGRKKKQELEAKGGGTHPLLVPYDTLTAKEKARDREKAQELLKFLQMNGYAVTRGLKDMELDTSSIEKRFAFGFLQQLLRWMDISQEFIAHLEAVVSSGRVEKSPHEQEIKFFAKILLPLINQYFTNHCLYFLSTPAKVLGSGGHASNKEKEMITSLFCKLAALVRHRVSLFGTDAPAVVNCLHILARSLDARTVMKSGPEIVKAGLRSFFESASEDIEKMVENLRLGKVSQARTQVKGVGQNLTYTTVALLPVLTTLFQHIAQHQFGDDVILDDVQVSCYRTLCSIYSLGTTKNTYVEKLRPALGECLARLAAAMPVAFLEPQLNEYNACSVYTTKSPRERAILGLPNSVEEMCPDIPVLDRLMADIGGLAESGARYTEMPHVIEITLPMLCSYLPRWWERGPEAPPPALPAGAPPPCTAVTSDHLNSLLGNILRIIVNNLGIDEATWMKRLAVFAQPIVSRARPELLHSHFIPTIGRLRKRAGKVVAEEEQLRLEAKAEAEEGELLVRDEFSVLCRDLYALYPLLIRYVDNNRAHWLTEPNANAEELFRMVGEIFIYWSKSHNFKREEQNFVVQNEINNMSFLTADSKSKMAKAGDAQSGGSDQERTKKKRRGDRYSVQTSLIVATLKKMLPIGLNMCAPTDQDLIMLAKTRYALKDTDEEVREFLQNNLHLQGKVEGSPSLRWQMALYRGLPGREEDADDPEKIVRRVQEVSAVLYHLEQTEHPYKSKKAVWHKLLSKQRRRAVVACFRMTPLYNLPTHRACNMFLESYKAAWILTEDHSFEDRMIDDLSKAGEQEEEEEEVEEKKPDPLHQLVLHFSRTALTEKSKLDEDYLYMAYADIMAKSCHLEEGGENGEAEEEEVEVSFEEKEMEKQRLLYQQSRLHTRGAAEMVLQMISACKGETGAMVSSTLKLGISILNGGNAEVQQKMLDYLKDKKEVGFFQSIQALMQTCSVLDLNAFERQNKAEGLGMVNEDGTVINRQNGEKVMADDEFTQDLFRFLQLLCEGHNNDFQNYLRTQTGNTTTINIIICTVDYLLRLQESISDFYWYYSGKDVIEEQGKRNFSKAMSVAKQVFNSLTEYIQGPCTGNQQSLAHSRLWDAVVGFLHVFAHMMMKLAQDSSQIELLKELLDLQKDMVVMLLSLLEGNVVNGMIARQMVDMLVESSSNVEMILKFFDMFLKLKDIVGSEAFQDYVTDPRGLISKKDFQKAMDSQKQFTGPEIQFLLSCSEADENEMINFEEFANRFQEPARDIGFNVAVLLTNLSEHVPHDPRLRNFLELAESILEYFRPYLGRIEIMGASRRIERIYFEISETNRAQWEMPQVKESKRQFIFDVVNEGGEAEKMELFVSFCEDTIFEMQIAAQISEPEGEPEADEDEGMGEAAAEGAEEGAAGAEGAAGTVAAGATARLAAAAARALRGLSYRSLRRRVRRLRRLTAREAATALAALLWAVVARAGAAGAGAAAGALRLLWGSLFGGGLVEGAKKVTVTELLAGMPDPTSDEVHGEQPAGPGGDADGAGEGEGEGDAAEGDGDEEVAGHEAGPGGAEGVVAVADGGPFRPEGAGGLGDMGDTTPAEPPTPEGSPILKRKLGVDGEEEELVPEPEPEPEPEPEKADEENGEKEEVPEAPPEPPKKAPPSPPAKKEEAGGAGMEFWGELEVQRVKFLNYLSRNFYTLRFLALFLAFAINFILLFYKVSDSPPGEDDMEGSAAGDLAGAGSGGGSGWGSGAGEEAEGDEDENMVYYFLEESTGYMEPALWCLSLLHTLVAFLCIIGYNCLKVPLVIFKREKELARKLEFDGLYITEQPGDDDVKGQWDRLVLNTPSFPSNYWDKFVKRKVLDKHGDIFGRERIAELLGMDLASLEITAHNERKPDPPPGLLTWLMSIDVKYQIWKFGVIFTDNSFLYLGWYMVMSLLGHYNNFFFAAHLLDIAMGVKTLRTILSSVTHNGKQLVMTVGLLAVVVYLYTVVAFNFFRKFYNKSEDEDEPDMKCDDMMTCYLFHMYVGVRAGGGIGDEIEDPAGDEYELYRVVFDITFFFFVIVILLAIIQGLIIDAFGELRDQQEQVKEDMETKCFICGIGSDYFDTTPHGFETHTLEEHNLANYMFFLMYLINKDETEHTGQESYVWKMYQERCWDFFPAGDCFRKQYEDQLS

Compound | IC50 [1, 6] [nM] | binding to anti-ryanodine antibodies compared with ryanodine (words) [2] | IC50 [2, 7] [nM] | IC50 [2, 8] [nM] | binding to ryanodine receptor / skeletal membranes compared with ryanodine [1] | binds times less tightly than ryanodine (antibody) [2] | IC50 [3] [nM] | IC50 [4] [nM] | IC50 ([1]; half-maximal inhibition of [3H]ryanodine binding to triads, skeletal muscle triads, 1 nM [3H]ryanodine, 1 hr at 37° C.) [nM] | binding to anti-ryanodine antibodies compared with ryanodine (words) ([2]; listed as compound 10) | proteins bound (specificity, words) [5] | binding to anti-ryanodine antibodies compared with ryanodine (words) ([2]; listed as compound 12) | binding to anti-ryanodine antibodies compared with ryanodine (words) ([2]; listed as compound 11) | Kd ([2]; method of Muller, read-out: average antibody apparent dissociation constant (Kd) for the [3H]ryanodine-antibody complex) [nM]
CC(C)C1(O)C(OC(=O)c2ccc[nH]2)C2(O)C3(C)CC4(O)OC5(C(O)C(CSCCOC(=O)C(=[N+]=[N-])C(F)(F)F)CCC35O)C2(O)C41C (centres unmarked) [Compound 7, 21-(2-[3,3,3-Trifluoro-2-diazopropionyloxy]-ethylmercapto)-ryanodine] | < 1000 | little effect on the IC50 | 4 | < 1000 |  |  |  |  |  |  |  |  |  | 
CC(C)C1(O)C(OC(=O)c2ccc[nH]2)C2(O)C3(C)CC4(O)OC5(C(O)C(CSCCCCOC(=O)c6ccc(N=[N+]=[N-])cc6)CCC35O)C2(O)C41C (centres unmarked) [Compound 6] | > 100 | lowest affinity | 198 | > 100 | lowest affinity | ~100 times |  |  |  |  |  |  |  | 
CC1CCC2(O)C3(C)CC4(O)OC2(C1OC(=O)CCNC(=O)c1ccc(N=[N+]=[N-])cc1)C1(O)C3(O)C(OC(=O)c2ccc[nH]2)C(O)(C(C)C)C41C (centres unmarked) [Compound 10, 10-O-(3-[4-Azidobenzamido]-propionyl)-ryanodine] | < 100 | very nearly matched the affinity of native ryanodine | 3.2 | < 100 | very nearly matched the affinity of native ryanodine |  | 25 | 89 | ~37 | IC50 values similar to ryanodine | only is capable of binding to the 565 kDa ryanodine receptor/Ca^2+ release channel |  |  | 
CC1CCC2(O)C3(C)CC4(O)OC2(C1OC(=O)CCNC(=O)c1ccc(C(=O)c2ccccc2)cc1)C1(O)C3(O)C(OC(=O)c2ccc[nH]2)C(O)(C(C)C)C41C (centres unmarked) [Compound 12, 10-O-(3-[4-benzoylbenzamido]-propionyl)-ryanodine] | < 100 | very nearly matched the affinity of native ryanodine | 6 | < 100 | very nearly matched the affinity of native ryanodine |  |  |  |  |  |  | IC50 values similar to ryanodine |  | 
CC1CCC2(O)C3(C)CC4(O)OC2(C1OC(=O)CCNC(=O)c1cc(N=[N+]=[N-])ccc1[N+](=O)[O-])C1(O)C3(O)C(OC(=O)c2ccc[nH]2)C(O)(C(C)C)C41C (centres unmarked) [Compound 11, 10-O-(3-[2-Nitro-5-azidobenzamido]-propionyl)-ryanodine] | < 100 | very nearly matched the affinity of native ryanodine | 3.2 | < 100 | very nearly matched the affinity of native ryanodine |  |  |  |  |  |  |  | IC50 values similar to ryanodine | 
CC1CCC2(O)C3(C)CC4(O)OC2(C1O)C1(O)C3(O)C(OC(=O)c2ccc[nH]2)C(O)(C(C)C)C41C (centres unmarked) [[^3 H]ryanodine, reference compound] |  |  |  |  |  |  |  |  |  |  |  |  |  | 1
CC(C)C1(O)C(OC(=O)c2ccc[nH]2)C2(O)C3(C)CC4(O)OC5(C(O)C(CSCCCCO)CCC35O)C2(O)C41C (centres unmarked) [Compound 4, 21-(4-Hydroxybutylmercapto)-ryanodine] | < 1000 |  | 25 | < 1000 |  | about 10 times |  |  |  |  |  |  |  | 
CC1CCC2(O)C3(C)CC4(O)OC2(C1O)C1(O)C3(O)C(OC(=O)c2ccc[nH]2)C(O)(C(C)C)C41C (centres unmarked) [Ryanodine, reference compound] |  | highest affinity | 1.6 | < 10 | highest affinity |  |  |  |  |  |  |  |  | 
